Results from article PMC11378297, “Discovery and Profiling of New Multimodal Phenylglycinamide Derivatives as Potent Antiseizure and Antinociceptive Drug Candidates” (ACS Chemical Neuroscience, 2024).
Where two headings read alike, the source gives them in different places. Marks after values point to notes of the source that are not given here.

Experiments:
[1] = test system: Na+ channel (site 2); experiment: Na+ channel (site 2) radioligand binding; conditions: 100 µM, rat cerebral cortex
Method: The current body of literature consistently reports that both sodium (Navx) and Cav1.2 calcium ion channels can be involved in the pathogenesis of epilepsy[67]−[69] and neuropathic pain.[70]−[73] […] Therefore, we performed binding and functional studies toward sodium (site 2) and calcium Cav1.2 channels at concentrations of 10 μM for (R)-31−(R)-33.
(§1) Using previously described testing methodologies, binding/functional tests were conducted on a commercial basis at Eurofins Laboratories (Poitiers, France) and Eurofins Panlabs Discovery Services Taiwan, Ltd. (New Taipei City, Taiwan); see Table S9 for more information.
(§2) Table S9. Radioligand binding and functional assays. […]
(§3) Assays were performed commercially in Eurofins Laboratories (Poitiers, France) or Eurofins Panlabs Discovery Services
(§4) Taiwan, Ltd. (New Taipei City, Taiwan).

[2] = test system: maximal electroshock (MES) seizures, mice; conditions: i.p., cited from earlier work
[3] = molecular target: T1, CB1 (h) (Homo sapiens, UniProt P21554); experiment: CB1 (h) (agonist effect); type: cell-based; conditions: human recombinant CHO cells, read-out: % Inhibition of control specific binding (functional study, agonist effect)
T1 construct: host or cells: CHO cells
T1 sequence (P21554 whole entry): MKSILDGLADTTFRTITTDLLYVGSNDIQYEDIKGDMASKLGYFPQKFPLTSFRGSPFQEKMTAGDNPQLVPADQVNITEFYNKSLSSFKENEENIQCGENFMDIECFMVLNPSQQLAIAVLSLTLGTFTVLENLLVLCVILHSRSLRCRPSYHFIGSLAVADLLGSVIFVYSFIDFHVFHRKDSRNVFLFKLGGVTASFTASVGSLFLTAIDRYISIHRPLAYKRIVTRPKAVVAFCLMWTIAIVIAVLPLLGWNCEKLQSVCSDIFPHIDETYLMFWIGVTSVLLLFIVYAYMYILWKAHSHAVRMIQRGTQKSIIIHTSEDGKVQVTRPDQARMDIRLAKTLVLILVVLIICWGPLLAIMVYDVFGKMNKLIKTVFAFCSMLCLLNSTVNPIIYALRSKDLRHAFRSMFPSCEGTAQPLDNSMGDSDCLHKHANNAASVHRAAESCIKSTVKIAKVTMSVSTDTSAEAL
Method: (§5) Further in vitro functional studies confirmed TRPV1 antagonist activity for (R)-31–(R)-33.
(§6) Table S2. In vitro TRPV1 channel antagonist activity for compounds 3–12 (series A), 21–24 (series B) in […]
(§7) Cmpd % Inhibition of control Cmpd % Inhibition of control agonist responsea agonist responsea
(§8) *Source: human recombinant CHO cells. a Results showing activity higher than 50% are considered to represent significant […]
(§9) around the control level. Assays were performed commercially in Eurofins Laboratories (Poitiers, France).
(§10) Binding studies Source % Inhibition of control specific binding […]
(§11) Na+ channel (site 2) Rat cerebral 94.9 (100)
(§12) Cav1.2 (dihydropyridine Rat cerebral 58.0 (100) site, antagonist radioligand) cortex
(§13) Functional studies Source % Inhibition of control specific binding […]
(§14) (antagonist effect) CHO cells
(§15) (agonist effect) CHO cells
(§16) Table S9. Radioligand binding and functional assays.
(§17) Cav1.2 (L-type) (h) calcium ion channel cell-based antagonist calcium flux assay TRPV1 (VR1) (h) (antagonist effect)
(§18) TRPA1 (h) transient potential ion channel cell based antagonist calcium flux assay TRPM8 (h) (antagonist effect)
(§19) Cav1.2 (L-type) (dihydropyridine site, antagonist radioligand) […]
(§20) Assays were performed commercially in Eurofins Laboratories (Poitiers, France) or Eurofins Panlabs Discovery Services Taiwan, Ltd. (New Taipei City, Taiwan).

[4] = molecular target: T2, TRPV1 (VR1) (h) (Homo sapiens, UniProt Q8NER1); experiment: TRPV1 (VR1) (h) (antagonist effect); type: cell-based; conditions: 100 µM, human recombinant CHO cells; read-out: % Inhibition of control specific binding (functional study, antagonist effect)
T2 construct: host or cells: CHO cells
T2 sequence (Q8NER1 whole entry): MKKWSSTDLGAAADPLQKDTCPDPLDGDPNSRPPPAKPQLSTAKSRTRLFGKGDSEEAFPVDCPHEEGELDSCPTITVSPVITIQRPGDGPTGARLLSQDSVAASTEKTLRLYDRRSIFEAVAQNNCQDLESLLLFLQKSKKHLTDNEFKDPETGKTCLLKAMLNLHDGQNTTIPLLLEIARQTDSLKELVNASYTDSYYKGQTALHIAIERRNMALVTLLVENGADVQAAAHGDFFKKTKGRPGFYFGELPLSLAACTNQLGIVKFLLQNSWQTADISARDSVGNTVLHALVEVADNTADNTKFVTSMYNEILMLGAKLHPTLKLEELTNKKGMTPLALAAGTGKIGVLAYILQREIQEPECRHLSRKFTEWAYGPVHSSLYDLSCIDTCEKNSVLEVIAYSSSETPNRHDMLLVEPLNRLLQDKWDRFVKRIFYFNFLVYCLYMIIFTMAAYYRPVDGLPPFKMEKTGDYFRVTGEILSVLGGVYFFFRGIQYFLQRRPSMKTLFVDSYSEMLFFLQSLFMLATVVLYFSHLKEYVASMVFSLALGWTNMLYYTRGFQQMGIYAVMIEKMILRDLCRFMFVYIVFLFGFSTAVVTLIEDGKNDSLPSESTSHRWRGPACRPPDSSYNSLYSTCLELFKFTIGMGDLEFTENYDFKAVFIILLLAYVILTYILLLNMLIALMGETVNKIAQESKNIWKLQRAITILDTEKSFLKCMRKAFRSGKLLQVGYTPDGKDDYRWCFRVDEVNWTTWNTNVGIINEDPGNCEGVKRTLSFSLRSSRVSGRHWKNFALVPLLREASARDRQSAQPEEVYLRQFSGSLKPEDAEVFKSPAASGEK
Method: as §5, §1, §2
TRPV1 (VR1) (h) (antagonist effect) […]
as §3, §4

[5] = test system: Cav1.2 (dihydropyridine site); experiment: Cav1.2 (dihydropyridine site, antagonist radioligand) binding; conditions: 100 µM, rat cerebral cortex
Method: as §5, §6, §7, §8, §9, §10, §11, §12, §13, §14, §15, §16, §17, §18, §19, §20

[6] = test system: mice (motor coordination); conditions: racemates, chimney test, i.p.; cited from earlier work
[7] = test system: 6 Hz (44 mA) seizures, mice; conditions: i.p., cited from earlier work
[8] = test system: 6 Hz (32 mA) seizures, mice; conditions: i.p., cited from earlier work
[9] = test system: mice (motor coordination); conditions: reference ASMs, rotarod test, i.p.; cited from earlier work
[10] = test system: formalin-induced pain, mice; set-up: method as in PMID 28934547; conditions: previously tested in the authors' laboratory; cited from earlier work
[11] = test system: mature-BDNF (mBDNF) expression; experiment: mBDNF expression in hippocampus and cortex of PTZ-kindled mice (Western blot); type: in vivo, mouse; conditions: VPA repeated (150 mg/kg), p < 0.01 vs PTZ kindling control
Excerpt: However, there are also few reports showing opposite findings.[51],[52] […] No changes in the expression of the nerve growth factor (NGF) were observed (Figure 6D–F).
Figure 6 Changes in mature-BDNF (mBDNF) expression in hippocampus (A) and cortex (C) and in proNGF expression in hippocampus (D) and cortex (F) with representative immunoblots, together with total protein amount visualized by the stain-free technique (B,E). Data are shown as means of relative expressions + SD (n = 8). Statistical significance was evaluated by one-way ANOVA followed by Tukey’s post hoc test: **p < 0.01 (GraphPad Prism 8.4.3).
The Western Blot method was used to assess the expression of proNGF and mBDNF in the mouse brain and hippocampal tissues. Using a bead homogenizer (Bead Ruptor Elite, Omni International, USA), the cortical and hippocampal regions of the mouse brain were weighted and homogenized at a ratio of 9 μL/mg in 2% SDS supplemented with a cocktail of protease (Thermo Scientific, Walthman, MA, USA) and phosphatase inhibitors (Sigma-Aldrich, St. Louis, MO, USA). Samples were then centrifuged at 10,000g for 10 min at 4 °C after being denatured for 10 min at 95 °C. […] One-way ANOVA with Tukey’s post hoc test was utilized to examine changes in the relative expression of the proteins that were evaluated.

[12] = test system: glutamate and GABA concentrations in brain; experiment: glutamate and GABA concentrations in hippocampus and cortex of PTZ-kindled mice; type: in vivo, mouse
Excerpt: After behavioral tests (FST, PTZ-induced kindling), we determined the changes in glutamate and GABA concentrations in the hippocampus and cortex. Since exposure to the FST can evoke various neurochemical alterations, two additional groups were employed in this experiment, i.e., control nonkindled mice that were exposed to the FST and naïve mice. No marked differences in both glutamate and GABA concentrations in the hippocampus were observed (Figure 5A). […] We found a significant increase in glutamate concentration in the cortex of mice subjected to the FST (p < 0.05 vs naive mice). […] Given that seizures are typically accompanied by elevated extracellular glutamate levels (an excitatory neurotransmitter), a decreased glutamate concentration in the cortex of kindled animals may appear to be an unexpected outcome. It should be highlighted, however, that the concentrations of glutamate and GABA in tissue homogenates rather than dialysate were measured in brain samples acquired 24 h following the previous PTZ dose, which may have an impact on the outcomes. On the other hand, decreased glutamate levels could be caused by the up-regulation of glutamate transporters, as the expression of glutamate transporters can increase following seizures.[48] For example, an increased expression of hippocampal GLT-1 was observed 24 h after kainic acid-induced status epilepticus in mice and PTZ-induced kindling in rats.[49] Moreover, similar to our findings, Szyndler et al.([50]) found decreased glutamate concentrations, with no changes in GABA concentrations, in homogenates of the hippocampus, striatum, and prefrontal cortex of PTZ-kindled rats.
Figure 5 Changes in glutamate and GABA concentrations in the hippocampus (A) and cortex (B). Data are shown as means + SD (n = 9–14 animals). Statistical significance was evaluated by one-way ANOVA followed by Tukey’s post hoc test: *p < 0.05, **p < 0.01, ***p < 0.001 (GraphPad Prism 8.4.3).
GABA and glutamate concentrations were determined using liquid chromatography tandem mass spectrometry (LC-MS/MS) in the mouse prefrontal cortex and hippocampus. Toronto Research Chemicals Inc. was the source of the standards for both analytes (Toronto, ON, Canada). GABA and glutamate stock standard solutions were made in methanol and deionized water, respectively, and kept cold at 4 °C. The stock solutions were suitably diluted to create a range of solution combinations with the appropriate concentrations. Prior to analysis, a hand-held pestle and glass tube homogenizer (Potter–Elvehjem PTFE pestle and glass tube, Sigma-Aldrich, St. Louis, MO, USA) were used to homogenize mouse brains in distilled water at a ratio of 50 μL/mg. Following a 10 min centrifugation at 8000g for 10 min at 4 °C, homogenates were diluted 10 times with 0.1% formic acid in MeCN from the supernatant. Samples (10 μL) were deproteinized with 80 μL of 0.1% formic acid in MeCN by shaking for 10 min (IKA Vibrax VXR, IKA Werke GmbH & Co. KG, Staufen im Breisgau, Germany) and centrifuged for 5 min at the speed of 8000g (Eppendorf miniSpin centrifuge) after isotope-labeled GABA-d6 and glutamate-d5 (Toronto Research Chemicals Inc., Toronto, ON, Canada) were added as internal standards (10 μL at the concentration of 500 ng/mL). The autosampler vials were filled with the acquired supernatants. […]

[13] = test system: PTZ-induced kindling, mice; experiment: PTZ-induced kindling model; type: in vivo, mouse; conditions: 150 mg/kg i.p. repeatedly, positive control
Method: We investigated the impact of lead compound (R)-32 on PTZ-induced kindling in mice to further assess its antiseizure potential (Figure 3). […] The PTZ-induced kindling model is widely recognized as a useful method to induce chronic increase in susceptibility to epileptic seizures.
Figure 3 Effect of repeated treatment with (R)-32 in PTZ-induced kindling model in mice. […] Data are presented as means of seizure severity (n = 10–15 animals). Statistical significance was evaluated by a mixed effects model for repeated measures followed by Tukey’s post hoc test: **p < 0.01, […] vs control group (GraphPad Prism 8.4.3).
The procedure was performed as described in detail in our previous studies.[88],[89] […] Seizures were induced three times a week by i.p. administration of PTZ at a subconvulsive dose of 40 mg/kg. […] The seizure severity was scored using the modified Racine’s scale. […] The locomotor activity test, the elevated plus maze test, and the FST were performed 24 h after the last PTZ injection, according to the methods described in detail elsewhere. After completion of behavioral tests, animals were sacrificed. Hippocampi and cortices were dissected from the brains, frozen, and stored at −80 °C until assay. Following each PTZ injection, the mean seizure severity scores were determined for each experimental group. A mixed effects model for repeated measurements was used for analysis, along with Tukey’s post hoc test. The percentage of fully kindled mice was compared using Fisher’s exact probability test.

[14] = test system: capsaicin-induced pain, mice; set-up: method as in PMID 28934547; conditions: 200 mg/kg; cited from earlier work
[15] = hepatotoxicity, HepG2 cell viability; type: cell-based, human; conditions: human, HepG2 hepatoma cells; 1 μM, 72 h of incubation (Figure 11)
Method: The hepatotoxicity potential was assessed with the HepG2 cell line and the reference cytostatic drug doxorubicin.
The results are presented as means + SD. Statistical significance was evaluated by one-way ANOVA, followed by Bonferroni’s multiple comparison post hoc test (Graph Pad Prism 8.0.1 software, San Diego, CA, USA): *p < 0.05, ***p < 0.001, ****p < 0.0001 vs negative control (DMSO 1% in growth media).

[16] = reference ASMs, pretreatment time 0.5 h (LCS, VPA) or 1.0 h (LEV, CBD), literature or own experiments
[17] = racemates, pretreatment time 0.5 h
[18] = reference ASMs, pretreatment time 0.5 h (LCS, VPA) or 1.0 h (LEV, CBD)

C=C(C)[C@@H]1CCC(C)=C[C@H]1c1c(O)cc(CCCCC)cc1O [CBD, cannabidiol]
% inhibition of control specific binding [1]: 94.9%
ED50 MES [2, 16]: 80.0 mg/kg
inhibition at 100 µM [3]: 103%
inhibition at 100 µM [4]: 47.8%
% inhibition of control specific binding [5]: 58.0%

CC(=O)NC(C(=O)N1CCN(c2cccc(C(F)(F)F)c2)CC1)c1ccccc1 (centres unmarked) [KJ-5]
ED50 MES [2, 17]: 89.7 mg/kg
TD50 [6]: 179.7 ^b mg/kg
ED50 6 Hz (44 mA) [7, 17]: 68.0 mg/kg
ED50 6 Hz (32 mA) [8, 17]: 29.9 mg/kg

COC[C@@H](NC(C)=O)C(=O)NCc1ccccc1 [LCS, lacosamide]
ED50 MES [2, 16]: 9.2 mg/kg
ED50 6 Hz (44 mA) [7, 18]: 6.9 mg/kg
ED50 6 Hz (32 mA) [8, 18]: 5.3 mg/kg

CC[C@@H](C(N)=O)N1CCCC1=O [LEV, levetiracetam]
ED50 MES [2, 16]: >500 mg/kg
TD50 [9]: >500 ^c mg/kg
ED50 6 Hz (44 mA) [7, 18]: 204.0 mg/kg

CCCC(CCC)C(=O)O [VPA, valproic acid, reference compound]
ED50 in the late phase of the formalin test [10]: 132.9 mg/kg
ED50 6 Hz (32 mA) [8, 18]: 130.6 mg/kg
mBDNF protein expression in the hippocampus (PTZ kindling-induced overexpression) [11]: reversed the overexpression
GABA concentration in the cortex ([12]; 150 mg/kg, p < 0.05 vs PTZ-kindled control group): significantly decreased
glutamate concentration in the hippocampus ([12]; vs nonkindled FST control group): slight decrease
effect on kindling progression [13]: suppressed kindling progression
activity in capsaicin-induced pain [14]: active only at the highest administered dose

COc1cccc2c1C(=O)c1c(O)c3c(c(O)c1C2=O)C[C@@](O)(C(=O)CO)C[C@@H]3O[C@H]1C[C@H](N)[C@H](O)[C@H](C)O1 [doxorubicin, reference compound]
viability at 72 h, 1 µM [15]: ~20%
